Results published in PMC2785710 (Bioorganic & medicinal chemistry letters, 2009).

Assay: in vitro metabolic stability in pooled mouse liver microsomes
Format: in vitro ADME
Settings: for half-life: t1/2, mouse liver microsomes

| microsomal CLint [µL/min/mg] | half-life [min] | SMILES |
| --- | --- | --- |
| 167 ± 4.2 | 8.3 | O=C(Nc1ccccc1Cl)c1cnn2ccc(N3CCCCC3)cc12 [Compound 58] |
| 51 ± 2.1 | 27 | O=C(Nc1ccccc1Cl)c1cnn2ccc(-c3ccccc3)cc12 [Compound 54] |
|  | 348 | O=C(Nc1ccccc1Cl)c1cnc2ccc(C3CCNCC3)cn12.O=C(O)C(=O)O [Compound 32] |
| 361 ± 64 | 3.8 | O=C(Nc1ccccc1Cl)c1cnc2ccccn12 [Compound 69] |
| 26 ± 0.8 | 53 | O=C(Nc1ccccc1Cl)c1cnc2ccc(-c3ccccc3)cn12 [Compound 70] |
| 71 ± 2 | 20 | O=C(Nc1ccccc1Cl)c1cnc2ccc(N3CCCCC3)cn12 [Compound 71] |
